Source: patent US10443062B2, “Genes that improve tolerance to lignocellulosic toxins when overexpressed in yeast” (Wisconsin Alumni Research Foundation, priority 2016, dated 2019)
Read-outs that look alike come from different tables or passages of the source.

System: NCYC361 and other strains
Conditions: for doubling time: YPD supplemented with 100 mg/L of iron sulfate vs YPD
Procedure: Shown are the average and standard deviation of the doubling times measured for each strain in YPD and in YPD supplemented with 100 mg/L of iron sulfate. […] Data represent three biological replicates.

## O.O.O.O.O.O.O.O=S(=O)([O-])[O-].[Fe+2] [iron sulfate, iron (II) sulfate heptahydrate]
NCYC361
  growth with iron supplementation to YPD: partially alleviated the slow growth
NCYC361, p<0.0008
  doubling time: faster
Any other strain
  doubling time: not significantly different
